How the values were obtained:
SB.msgc-1 [1] = assay: area under the dose-response curve of % viability (trapezoidal, 11 doses) (% viability x log10 concentration); higher = less cytotoxic; conditions: SB.msgc-1 (sporadic gastric cancer)
Procedure, shortened: (§1)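 Viability, normalised to DMSO, is listed either at the highest concentration or as trapezoidal area under the curve. It was measured in patient-derived gastric cancer cells, hereditary or sporadic, exposed for 48 h to 11 threefold-diluted compound concentrations and then assayed with CellTiter-Glo luminescence.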

SB.mhdgc-1 [2] = assay: as above; conditions: SB.mhdgc-1 (hereditary c.1380delA CDH1 gastric cancer)
Procedure, shortened: as §1

SB.msgc-1 [3] = assay: viability at highest tested concentration (MAXR) relative to DMSO; higher = less cytotoxic; conditions: SB.msgc-1 (sporadic gastric cancer)
Procedure, shortened: as §1

SB.mhdgc-1 [4] = assay: as above; conditions: SB.mhdgc-1 (hereditary c.1380delA CDH1 gastric cancer)
Procedure, shortened: as §1

| Compound | area under the dose-response curve (SB.msgc-1 [1]) | area under the dose-response curve (SB.mhdgc-1 [2]) | viability (SB.msgc-1 [3]) [%] | viability (SB.mhdgc-1 [4]) [%] |
| --- | --- | --- | --- | --- |
| CNC(=O)c1cc(Oc2ccc(NC(=O)Nc3ccc(Cl)c(C(F)(F)F)c3)c(F)c2)ccn1 [Regorafenib] (top concentration 46.0829 µM) | 393 | 428 | 13.6 | 6.16 |
| C=CCNC1=C2C[C@@H](C)C[C@H](OC)[C@H](O)[C@@H](C)/C=C(\C)[C@H](OC(N)=O)[C@@H](OC)/C=C\C=C(/C)C(=O)NC(=CC1=O)C2=O [Tanespimycin] (top concentration 46.0829 µM) | 326 | 363 | 18.5 | 3.64 |
| COC1=CC=C(C(=C1)OC(C)C)C/2=N/[C@@H]([C@@H](N2C(=O)N3CCNC(=O)C3)C4=CC=C(Cl)C=C4)C5=CC=C(Cl)C=C5 [Nutlin-3] (top concentration 46.0829 µM) | 478 | 386 | 37.8 | 7.3 |
| COc1cc(OC)c(/C=C/[S+](=O)([O-])Cc2ccc(OC)c(NCC(=O)[O][Na])c2)c(OC)c1 (top concentration 46.0829 µM) | 411 | 450 | 38 | 64.1 |
| COc1ccc(C(C)=O)c(O)c1 [Paeonol] (top concentration 46.0829 µM) | 566 | 545 | 105 | 57 |
| O=C(Nc1ncc(SCCN2CCCC2)s1)[C@]1(c2ccc([S+](=O)([O-])C3CC3)cc2)C[C@H]1C1CCCCC1 (top concentration 46.0829 µM) | 510 | 511 | 3.97 | 2.7 |
| Cc1ccc(F)c(NC(=O)Nc2ccc(-c3cccc4[nH]nc(N)c34)cc2)c1 [Linifanib] (top concentration 46.0829 µM) | 498 | 479 | 26.4 | 18.9 |
| OC1=CC2=C(C(=C1)O)C(=O)\C(=C(/O2)C3=CC(=C(O)C(=C3)O)O)O [Myricetin] (top concentration 46.0829 µM) | 484 | 510 | 100 | 108 |
| C[C@@H](NC(=O)c1ncnc(N)c1Cl)c1ncc(C(=O)Nc2cc(C(F)(F)F)c(Cl)cn2)s1 [MLN-2480] (top concentration 46.0829 µM) | 554 | 543 | 48.3 | 71.9 |
| C[S+](=O)([O-])c1ccc(C(=O)Nc2ccc(Cl)c(-c3ccccn3)c2)c(Cl)c1 [Vismodegib] (top concentration 46.0829 µM) | 494 | 535 | 64.1 | 81.5 |
| CO[C@@H]1C(N(C)C(=O)c2ccccc2)C[C@H]2O[C@]1(C)n1c3ccccc3c3c4c(c5c6ccccc6n2c5c31)C(=O)NC4=O (stereo partly drawn) [Stauprimide] (top concentration 46.0829 µM) | 301 | 386 | 34.8 | 41.7 |
| C[S+](=O)([O-])c1cccc(CNc2nc(Nc3ccc4c(c3)CCC(=O)N4)ncc2C(F)(F)F)c1 (top concentration 46.0829 µM) | 547 | 462 | 57.3 | 58.8 |
| C[C@]1(CO)CN(c2cc(C(=O)Nc3ccc4c(c3)-c3c(c(C(N)=O)nn3-c3ccc(F)cc3)CC4)c(Cl)cn2)C[C@@]1(C)CO [PF-184] (top concentration 46.0829 µM) | 496 | 450 | 54.5 | 30.3 |
| CC1=C(C)C(=O)C(C(CCCCCC(=O)O)c2ccccc2)=C(C)C1=O (stereo not drawn) [Seratrodast] (top concentration 46.0829 µM) | 451 | 427 | 98.4 | 95.2 |
| CCN(C(=O)C/1=C(O)/C2=C(C=CC=C2Cl)N(C)C1=O)C3=CC=CC=C3 [Laquinimod] (top concentration 46.0829 µM) | 489 | 559 | 96.7 | 112 |
| CC(C)(C)c1cc(C=C(C#N)C#N)cc(Br)c1O [AG-1024] (top concentration 46.0829 µM) | 422 | 499 | 24.4 | 9.2 |
| CN1\C=N/C2=CC=C(NC3=CC(=CC=C3C)NC(=O)C4=CC(=CC=C4)C(C)(C)C#N)C=C2C1=O [AZ-628] (top concentration 46.0829 µM) | 488 | 438 | 57.2 | 52.6 |
| CN1CCCN(C(=O)c2cccc(-c3ccc(/C=C4/C(=O)Nc5ccc(Cl)cc54)o3)c2)CC1 [CX-6258] (top concentration 46.0829 µM) | 471 | 490 | 1.28 | 2.37 |
| COc1ccc(CCN(C)CCCOc2ccc([S+](=O)([O-])c3[nH]c4ccccc4c3C(C)C)cc2)cc1OC (top concentration 46.0829 µM) | 575 | 529 | 109 | 66.8 |
| O=P(O)(O)C(O)(Cc1cccnc1)P(=O)(O)[O][Na] (stereo not drawn) [Risedronate sodium] (top concentration 46.0829 µM) | 559 | 506 | 107 | 112 |
| CC(C)C[C@H](CN)CC(=O)O [Pregabalin] (top concentration 46.0829 µM) | 388 | 585 | 76.5 | 117 |
| Cn1ccc2cc3c(cc21)CCN3C(=O)Nc1cccnc1 (top concentration 46.0829 µM) | 527 | 462 | 61.5 | 59.3 |
